{"source": "patent US20110165092A1", "about": "“COSMETIC AND/OR DERMATOLOGICAL COMPOSITION” (Universite de la Mediterranee, Aix-Marseille II, priority 2008, published 2011)", "key": {"control fibroblasts": {"system": "control fibroblasts", "assay": "Nuclear morphology of control mice cells in culture", "format": "cell-based, mouse", "conditions": "FIG. 12b", "source_text": "(§1) The dermal fibroblasts of a control subject (GM00038) and of patients afflicted with progeria and carriers of the G608G mutation (AG11498 and AG01972) were obtained from the Coriell Cell Repository. The HeLa cells came from the American Type Culture Collection. The cells were cultivated in DMEM (Gibco) supplemented with 10% FBS (Gibco) and 1% antibiotic-antimycotic (Gibco). The fibroblasts came from 12-day old mice tails (Varela et al., 2005). The concentration and the length of the treatment with the statin and the aminobiphosphonate are indicated in the legend to the figures. During the combined treatment with statin+aminobiphosphonate in the presence of farnesol and/or geranylgeraniol, 1 mM of pravastatin and 1 mM of zoledronate were added to the culture medium with increasing concentrations of farnesol and/or geranylgeraniol. The percentage of abnormal nuclei was measured 48 hours after the start of the treatment.\n(§2) Quantification of the effect of pravastatin (1 μM) and zoledronate (1 μM) combined or uncombined on the nuclear morphology of Zmpste24^−/− mice (a) and control mice (b) cells in culture, in the presence of farnesol, geranylgeraniol or both molecules."}, "progeria patient cells": {"system": "progeria patient cells", "assay": "Immunocytochemistry, nuclear morphology of progeria patient cells", "format": "cell-based, human", "conditions": "abnormal nuclei 48 hours after start, FIG. 10d", "source_text": "as §1, with “During the combined treatment with statin+aminobiphosphonate in the presence of farnesol and/or geranylgeraniol, 1 mM of pravastatin and 1 mM of zoledronate were added to the culture medium with increasing concentrations of farnesol and/or geranylgeraniol.” left out, “treatment. […]” for “treatment.”\nThe dilution of primary antibodies was 1:100 for the polyclonal goat anti-prelamin A antibody Sc-6214, Santa Cruz Biotechnologies), 1:40 for the anti-lamin A/C antibody (4A7 supplied by G. Morris), 1:200 for the anti-calreticulin rabbit antibody (Stressgen) and 1:100 for the anti-lamin B1 antibody (Abcam). […] Digital images were recorded with a Leica DMR microscope equipped with a CoolSnap camera or with a Leica TCS SP5 confocal microscope. […] More than 100 nuclei were analysed in control fibroblasts for each of the treatments. The number of cell nuclei of patients afflicted with progeria which was analysed was 250 (passage 8), 198 (passage 13) and 150 (passage 20). […]"}, "Zmpste24−/− cells": {"system": "Zmpste24−/− cells", "assay": "Nuclear morphology of Zmpste24−/− mice cells in culture", "format": "cell-based, mouse", "conditions": "pravastatin 1 μM and zoledronate 1 μM, alone or in combination, FIG. 12a", "source_text": "as §1, §2"}, "healthy cells": {"system": "healthy cells", "assay": "Immunohistochemistry dose- and time-response on healthy control cells", "format": "cell-based, human", "conditions": "100 μM pravastatin for 12 hours, 20 μM zoledronate for 6 hours, FIG. 3; for rate of prelamin A produced in treated healthy cells: in combination or singly", "protocol": "Labtech style culture wells (Nunc, Ref. 177399) are seeded, at the rate of 5×10^4 cells per well.\nThe complete culture medium is supplemented with the treatment or treatments (statin, NBP, both), and the cells are cultivated for the ad hoc time.\nThe cells are fixed in a 4% paraformaldehyde solution (in PBS) for 10 minutes at ambient temperature.\nThe primary antibody is diluted to 1/100th in 50 μl of incubating solution and placed in contact with the cells for 1 hour at ambient temperature in a moisture chamber.\nThe primary antibodies used are of 2 types: • Anti-lamin A/C mouse (N-terminal side), clone 4A7, donation from G. Morris (Oswestry, UK) • Anti-prelamin A goat (15 aa C-terminal end), product SC6214, Santa Cruz Biotechnology, Inc. • 3 rinsings of 15 min each are carried out in 50 μl of 1× PBS.\nThe cells are immersed in a drop of VectaShield (Vector), covered with a cover glass and observed under a fluorescence microscope (Leica DMR, Leica Microsystems), equipped with a coolSNAP camera system (Princeton).\nDose-response and time-response curves made it possible to determine maximum effectiveness by measuring 2 parameters on healthy control cells, on the one hand, and then on HGPS patient cells."}, "Zmpste24−/− mice": {"system": "Zmpste24−/− mice", "assay": "Progeroid phenotype of Zmpste24−/− mice (Example 9)", "format": "in vivo, mouse", "conditions": "daily treatment, FIG. 15", "procedure": "Pravastatin (100 mg/kg/day) and zoledronate (100 mg/kg/day) diluted in PBS were administered to the mice every day.\nThe difference between the various groups of treated or untreated mice and cells was analysed using the t-test. The calculations were made with the Microsoft Excel program. The data was expressed as a mean±standard error of the mean (SEM)."}}, "data": [{"smiles": "CC(C)=CCCC(C)=CCCC(C)=CCO", "note": "[farnesol]", "values": [{"measurement": "effect on nuclear morphology of control fibroblasts", "setting": "control fibroblasts", "result": "Neither farnesol nor geranylgeraniol produces any effect on control fibroblasts"}, {"measurement": "influence on the effect of the pravastatin+zoledronate treatment on nuclear morphology", "setting": "progeria patient cells", "result": "abolishes the effect of the pravastatin+zoledronate treatment"}, {"measurement": "influence on the effect of the pravastatin+zoledronate treatment on nuclear morphology", "setting": "Zmpste24−/− cells", "result": "abolish the effect of the pravastatin+zoledronate treatment on the nuclear morphology"}]}, {"smiles": "CC(C)=CCC/C(C)=C/CC/C(C)=C/CC/C(C)=C/CO", "note": "[geranylgeraniol]", "values": [{"measurement": "effect on nuclear morphology of control fibroblasts", "setting": "control fibroblasts", "result": "Neither farnesol nor geranylgeraniol produces any effect on control fibroblasts"}, {"measurement": "influence on the effect of the pravastatin+zoledronate treatment on nuclear morphology", "setting": "progeria patient cells", "result": "also blocks the effect of the treatment"}, {"measurement": "influence on the effect of the pravastatin+zoledronate treatment on nuclear morphology", "setting": "Zmpste24−/− cells", "result": "abolish the effect of the pravastatin+zoledronate treatment on the nuclear morphology"}]}, {"smiles": "CC[C@H](C)C(=O)O[C@H]1C[C@H](O)C=C2C=C[C@H](C)[C@H](CC[C@@H](O)C[C@@H](O)CC(=O)O)[C@H]21", "note": "[pravastatin]", "values": [{"measurement": "rate of deformed nuclei (a sign of toxicity in healthy cells)", "setting": "healthy cells", "result": "approximately 12%"}, {"measurement": "rate of prelamin A produced in treated healthy cells", "setting": "healthy cells", "result": 25, "unit": "%"}]}, {"smiles": "O=P(O)(O)C(O)(Cn1ccnc1)P(=O)(O)O", "note": "[zoledronate, (1-hydroxy-2-imidazol-1-yl-1-phosphono-ethyl)phosphonic acid]", "values": [{"measurement": "rate of prelamin A produced in treated healthy cells", "setting": "healthy cells", "result": 15, "unit": "%"}, {"measurement": "lifespan of the Zmpste24−/− mice, each drug separately", "setting": "Zmpste24−/− mice", "result": "does not improve the lifespan"}]}]}
